Measurements taken from US5250548A, “Angiotensin II receptor antagonists” (Abbott Laboratories, priority 1992, dated 1993).
Counter-ions that a name gives are not always drawn.

test system: not given; test: not given; details: cited from earlier work

For `CNCC(=O)N[C@@H](CCCN=C(N)N)C(=O)N[C@H](C(=O)N[C@@H](Cc1ccc(O)cc1)C(=O)N[C@H](C(=O)N[C@@H](Cc1cnc[nH]1)C(=O)N1CCC[C@H]1C(=O)N[C@@H](C)C(=O)O)C(C)C)C(C)C` [saralasin, [Sar^1,Ala^8] angiotensin II], the oral bioavailability is listed as “very poor oral bioavailability”.

test system: hypertension and congestive heart failure; test: not given; details: cited from earlier work

In the case of `C[C@H](CS)C(=O)N1CCC[C@H]1C(=O)O` [captopril], the clinical efficacy is listed as “clinical efficacy in treating hypertension and congestive heart failure”.
For `CCOC(=O)[C@H](CCc1ccccc1)N[C@@H](C)C(=O)N1CCC[C@H]1C(=O)O` [enalapril], the clinical efficacy is given as “clinical efficacy in treating hypertension and congestive heart failure”.
For `COc1ccc(C[C@H](NC(=O)CC(C)(C)N)C(=O)N[C@@H](Cc2cnc[nH]2)C(=O)N[C@@H](CC2CCCCC2)[C@@H](O)[C@@H](O)CC(C)C)cc1` [enalkiren], the clinical efficacy is listed as “clinical efficacy in treating hypertension and congestive heart failure”.

test system: blood pressure; test: not given; details: after intravenous administration; due to its activity as an angiotensin receptor agonist; cited from earlier work

In the case of `CNCC(=O)N[C@@H](CCCN=C(N)N)C(=O)N[C@H](C(=O)N[C@@H](Cc1ccc(O)cc1)C(=O)N[C@H](C(=O)N[C@@H](Cc1cnc[nH]1)C(=O)N1CCC[C@H]1C(=O)N[C@@H](C)C(=O)O)C(C)C)C(C)C` [saralasin, [Sar^1,Ala^8] angiotensin II], the “effect on blood pressure” value is given as “initial increase in blood pressure after intravenous administration”.

test system: renal artery ligated rats; test: In vivo blood pressure lowering in renal artery ligated hypertensive rats; set-up: species or system rat; details: dose of 30 mg/kg

For `CCCN(Cc1ccc(-c2ccccc2-c2nnn[nH]2)cc1)c1ncccc1C(=O)O` [Example 88, 2-{N-Propyl-N-[(2'-[1H-tetrazol-5-yl]biphenyl-4-yl)methyl]amino}pyridine-3-carboxylic acid], the “reduction in mean arterial blood pressure (MAP)” value was “caused a reduction in mean arterial blood pressure (MAP)”.

test system: angiotensin II receptor; test: not given; details: cited from earlier work

In the case of `CNCC(=O)N[C@@H](CCCN=C(N)N)C(=O)N[C@H](C(=O)N[C@@H](Cc1ccc(O)cc1)C(=O)N[C@H](C(=O)N[C@@H](Cc1cnc[nH]1)C(=O)N1CCC[C@H]1C(=O)N[C@@H](C)C(=O)O)C(C)C)C(C)C` [saralasin, [Sar^1,Ala^8] angiotensin II], the “antagonism of the actions of angiotensin II” value is listed as “potent antagonist of the actions of angiotensin II”.

target: T1, angiotensin II receptor (Oryctolagus cuniculus, UniProt P34976); test: Angiotensin II functional assay: antagonism of contraction of rabbit aorta (isolated tissue, Schild analysis); set-up: species or system rabbit (female New Zealand White); details: antagonist incubated 30 minutes, negative logarithm of antagonist concentration that requires doubling of the angiotensin II concentration
T1 construct: Main abdominal aortas were removed and placed in Krebs-Henseleit buffer; from tissue; host or cells: main abdominal aorta rings (3 mm) of female New Zealand White rabbits
T1 sequence (P34976 1-359): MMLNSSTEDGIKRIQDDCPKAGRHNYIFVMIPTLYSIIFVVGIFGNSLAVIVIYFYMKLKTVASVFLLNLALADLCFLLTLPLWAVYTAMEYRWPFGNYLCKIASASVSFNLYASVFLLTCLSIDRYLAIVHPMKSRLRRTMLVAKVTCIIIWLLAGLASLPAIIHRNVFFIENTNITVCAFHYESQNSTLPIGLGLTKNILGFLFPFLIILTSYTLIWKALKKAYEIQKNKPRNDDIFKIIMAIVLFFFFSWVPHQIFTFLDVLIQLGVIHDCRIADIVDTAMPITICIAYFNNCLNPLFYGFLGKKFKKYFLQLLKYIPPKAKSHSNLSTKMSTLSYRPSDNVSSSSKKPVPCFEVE
Protocol: Antagonism of Contraction of Rabbit Aorta The protocol reported by A. T Chiu and […]. Wong, et al. Hypertension, 13, 489-497 (1989)) was followed with a few modifications. Female New Zealand White rabbits weighing 2-5 kg were sedated with carbon dioxide and then sacrificed. Main abdominal aortas were removed and placed in Krebs-Henseleit buffer at room temperature. The tissues were cleaned of extraneous connective tissue, cut into 3 mm rings, and suspended within a 10 mL tissue bath. All dilutions of peptide preparations were made with 0.3% aqueous BSA. The tissues were primed with 55 mM potassium chloride. Tissues were pre-loaded with 1 g of tension. Tension was recorded on a model 7 Grass polygraph using FT03 transducers. At the end of the equilibrium period, a control cumulative concentration-contractile response curve for angiotensin II (A II: 1×10^-10 -10^-8 M) was obtained. The tissue was washed several times until the baseline was reached. Forty five minutes later, test compound (antagonist) was added and the tissue was incubated for 30 minutes. The concentration-response curve for A II was then repeated in the presence of the test compound. One dose of antagonist was tested per tissue only. […] All responses to the control agonist were calculated as a percentage of the maximum response.

First: CCCN(Cc1ccc(-c2ccccc2-c2nnn[nH]2)cc1)c1nc(C)ncc1C(=O)O [Example 99, 2-Methyl-4-{N-propyl-N-[(2'-[1H-tetrazol-5-yl]biphenyl-4-yl)methyl]amino}pyrimidine-5-carboxylic acid]
Second: O=C(O)c1cccnc1N(Cc1ccc(-c2ccccc2-c2nn[nH]n2)cc1)CC1CC1 [Example 206, 2-{N-Cyclopropylmethyl-N-[ (2'-[1H-tetrazol-5-yl]biphenyl-4-yl)methyl]amino}pyridine-3-carboxylic acid]
The pA2 of the first is higher: 9.60 for the first, 8.93 for the second.

same assay, conditions: antagonist incubated 30 minutes, negative logarithm of antagonist concentration that requires doubling of the angiotensin II concentration, read-out: pA2 (converted)

First: CCCCN(Cc1ccc(-c2ccccc2-c2nn[nH]n2)cc1)c1ncccc1C(=O)O [Example 229, 2-{N-Butyl-N-[(2'-[1H-tetrazol-5-yl]biphenyl-4-yl)methyl]amino}pyridine-3-carboxylic acid]
Second: CCCCN(Cc1ccc(-c2ccccc2-c2nn[nH]n2)cc1)c1nnccc1C(=O)O [Example 169, 3-{N-Butyl-N-[(2'-[1H-tetrazol-5-yl]biphenyl-4-yl)methyl]amino}pyridazine-4-carboxylic acid]
The Kb of the first is 3.8-fold higher: 0.339 nM for the first, 0.0891 nM for the second.

First: CCCN(Cc1ccc(-c2ccccc2-c2nn[nH]n2)cc1)c1ncccc1NS(=O)(=O)C(F)(F)F [Example 147, 3-Trifluoromethanesulfonamido-2-{N-propyl-N-[(2'-[1H-tetrazol-5-yl]biphenyl-4-yl)methyl]amino}pyridine]
Second: CCCN(Cc1ccc(-c2ccccc2-c2nn[nH]n2)cc1)c1ncccc1C(O)C(F)(F)C(=O)OCC (stereo not shown) [Example 135, 3-(2.2-Difluoro-2-ethoxycarbonyl-1-hydroxyethyl)-2-{N-propyl-N-[(2'-[1H-tetrazol-5-yl]biphenyl-4-yl)methyl]amino}pyridine]
The Kb of the first is 5.4-fold lower: 0.631 nM for the first, 3.39 nM for the second.

`CCCCN(Cc1ccc(-c2ccccc2-c2nnn[nH]2)cc1)c1nc(OC)ccc1C(=O)O` [Example 163, 2-{N-Butyl-N-[(2' -[1H-tetrazol-5-yl]biphenyl-4-yl)methyl]amino}-6-methoxypyridine-3-carboxylic acid] and `CCCCN(Cc1ccc(-c2ccccc2-c2nnn[nH]2)cc1)c1nc(F)ccc1C(=O)O` [Example 162, 2-{N-Butyl-N-[(2'-[1H-tetrazol-5-yl]biphenyl-4-yl)methyl]amino}-6-fluoropyridine-3-carboxylic acid] are the same in Kb: 0.309 nM for the first, 0.309 nM for the second.

Going from `CCCN(Cc1ccc(-c2ccccc2-c2nn[nH]n2)cc1)c1ncncc1C(=O)O` [Example 71, 4-{N-Propyl-N-[(2'-[1H-tetrazol-5yl]biphenyl-4-yl)methyl]amino}pyrimidine-5-carboxylic acid hydrochloride] to `CCCN(Cc1ccc(-c2ccccc2-c2nn[nH]n2)cc1)c1ncc(F)cc1C(=O)O` [Example 180, 5-Fluoro-2-{N-propyl-N-[(2'-[1H-tetrazol-5-yl]biphenyl-4-yl)methyl]amino}pyridine-3-carboxylic acid], the Kb rises from 0.209 nM to 0.912 nM (4.4-fold).

Compared with `CCCCN(Cc1ccc(-c2ccccc2-c2nn[nH]n2)cc1)c1ncc(C(=O)O)cn1` [Example 167, 2-{N-Butyl-N-[(2'-[1H-tetrazol-5-yl]biphenyl-4-yl)methyl]amino}pyrimidine-5-carboxylic acid], `CCCCN(Cc1ccc(-c2ccccc2-c2nn[nH]n2)cc1)c1nccnc1C(=O)O` [Example 157, 3-{N-Butyl-N-[(2'-[1H-tetrazol-5-yl]biphenyl-4-yl)methyl]amino}pyrazine-2-carboxylic acid] is 25-fold lower in Kb: 3.31 nM for the first, 0.135 nM for the second.

Going from `CCCN(Cc1ccc(-c2ccccc2-c2nn[nH]n2)cc1)c1ncccc1C(=O)NS(=O)(=O)c1ccccc1` [Example 203, 2-{N-Propyl-N-[(2'-[1H-tetrazol-5-yl]biphenyl-4-yl)methyl]amino}pyridine-3-(N-benzenesulfonyl)carboxamide] to `CCCN(Cc1ccc(-c2ccccc2-c2nn[nH]n2)cc1)c1ncccc1C(O)CC(=O)O` (stereo not shown) [Example 140, 3-(2-Carboxy-1-hydroxyethyl)-2-{N-propyl-N-[(2'-[1H-tetrazol-5-yl]biphenyl-4-yl)methyl]amino}pyridine], the Kb falls from 2.24 nM to 1.45 nM (1.5-fold).

Compared with `O=C(O)c1cccnc1NCc1ccc(-c2ccccc2-c2nn[nH]n2)cc1` [Example 226], `CCCN(Cc1ccc(-c2ccccc2-c2nn[nH]n2)cc1)c1nnccc1C(=O)O` [Example 172, 3-{N-Propyl-N-[(2'-[1H-tetrazol-5-yl]biphenyl-4-yl)methyl]amino}pyridazine-4-carboxylic acid] is 6-fold lower in Kb: 1.29 nM for the first, 0.214 nM for the second.

Going from `CCCCN(Cc1ccc(-c2ccccc2-c2nn[nH]n2)cc1)c1nnc(Cl)cc1C(=O)O` [Example 168, 6-{N-Butyl-N-[(2'-[1H-tetrazol-5-yl]biphenyl-4-yl)methyl]amino}-3-chloropyridazine-5-carboxylic acid] to `CCCN(Cc1ccc(-c2ccccc2-c2nn[nH]n2)cc1)c1nc(F)ccc1C(=O)O` [Example 160, 2-{N-Propyl-N-[(2'-[1H-tetrazol-5-yl]biphenyl-4-yl)methyl]amino}-6-fluoropyridine-3-carboxylic acid], the Kb falls from 0.851 nM to 0.234 nM (3.6-fold).

Compared with `CCCN(Cc1ccc(-c2ccccc2-c2nn[nH]n2)cc1)c1nc(C(F)(F)F)ncc1C(=O)O` [Example 114, 2-Trifluoromethyl-4-{N-propyl-N-[(2'-[1H-tetrazol-5-yl]biphenyl-4-yl)methyl]amino}pyrimidine-5-carboxylic acid], `CCCN(Cc1ccc(-c2ccccc2-c2nn[nH]n2)cc1)c1nccc(C)c1C(=O)O` [Example 194, 4-Methyl-2-{N-propyl-N-[(2'-[1H-tetrazol-5-yl]biphenyl-4-yl)methyl]amino}pyridine-3-carboxylic acid] is 7.1-fold lower in Kb: 1.62 nM for the first, 0.229 nM for the second.

First: CCCN(Cc1ccc(-c2ccccc2-c2nnn[nH]2)cc1)c1ncccc1C(=O)C(F)(F)C(=O)OCC [Example 137, 3-[2,2-Difluoro-2-(ethoxycarbonyl)acetyl]-2-{N-propyl-N-[(2'-[1H-tetrazol-5-yl]biphenyl-4-yl]methyl]amino}pyridine]
Second: CCCCN(Cc1ccc(-c2ccccc2-c2nnn[nH]2)cc1)c1ncncc1C(=O)O [Example 53, 4-{N-butyl-N-[(2'-[1H-tetrazol-5-yl]biphenyl-4-yl)methyl]amino}pyrimidine-5-carboxylic acid hydrochloride]
The Kb of the first is 36-fold higher: 4.57 nM for the first, 0.126 nM for the second.

`CCCCN(Cc1ccc(-c2ccccc2-c2nnn[nH]2)cc1)c1ncncc1C(=O)OCOC(=O)C(C)(C)C` [Example 82, Pivaloyloxymethyl 4-{N-butyl-N-[(2'-[1H-tetrazol-5-yl]biphenyl-4-yl)methyl]amino}pyrimidine-5-carboxylate] and `CCCCN(Cc1ccc(-c2ccccc2-c2nnn[nH]2)cc1)c1ncncc1C(=O)OC(C)OC(=O)C1CCN(C)CC1` (stereo not shown) [Example 121, 1-(1-Methylpiperidin-4-ylcarbonyloxy)ethyl 4-{N-butyl-N-[(2'-[1H-tetrazol-5-yl]biphenyl-4-yl)methyl]amino}pyrimidine-5-carboxylate] are within 1.5-fold of each other in Kb: 0.331 nM for the first, 0.257 nM for the second.
